From PubChem BioAssay AID1996 come the findings set out here.

In brackets after ≈: the same amount, converted by molar mass. Bounds are passed on as bounds.

The conditions of the series: buffer; pH 7.4; 200.0 µM.
For `S=C(Nc1ccc(Cl)cc1Cl)N1CCCC1`, the kinetic solubility (in general, the concentration staying in solution when a stock, usually in DMSO, is diluted into the medium) stood at 0.0086 mg/mL (≈ 31.2 µM).
To `COc1cc2c(cc1OC)-c1cc(Nc3ccccc3)nc(=O)n1CC2` belongs 0.0075 mg/mL (≈ 21.5 µM).
The value for `Cc1ccc(C(=O)OCc2cc(=O)n3ccsc3n2)s1` was 0.0068 mg/mL (≈ 22.2 µM); that for `CCN1CCN(C(=O)N(c2ccccc2)c2ccccc2)CC1` was > 0.0464 mg/mL.
Regarding `CCOC(=O)C(O)(c1ccc(NC(=O)NC)cc1)C(F)(F)F` (stereo unspecified), the solubility (kinetic) was > 0.048 mg/mL.
In the case of `O=C(O/N=C/c1ccc(Cl)cc1)C1CCCCC1`, the solubility (kinetic) worked out at 0.0024 mg/mL (≈ 9.03 µM).
To `COc1ccc(C)cc1NC(=O)c1ccc(OCc2c(C)noc2C)cc1` belongs 0.0009 mg/mL (≈ 2.46 µM); to `Cc1nc2ccccc2c(N)c1C(=O)/C=C/c1ccccc1`, > 0.0433 mg/mL; to `O=C(Nc1ccccc1C(F)(F)F)c1cnccn1`, 0.0215 mg/mL (≈ 80.5 µM).
As to `O=C(Nc1ccc(F)cc1)/C(=C1/CCCCCN1)[N+](=O)[O-]`, the solubility (kinetic) was > 0.044 mg/mL.
With `COc1cccc(C(=O)NCCNC(=O)c2ccccn2)c1`, the kinetic solubility is > 0.0449 mg/mL.
As for `Nc1ccc(-c2cc3ccccc3oc2=O)cc1`, the kinetic solubility is 0.0179 mg/mL (≈ 75.4 µM).
The value for `CCOc1ccccc1OCC(=O)Nc1cc(C)on1` was > 0.0414 mg/mL; that for `O=C(Cc1ccc(Cl)cc1)NCCc1cnc[nH]1` was > 0.0396 mg/mL; that for `COc1cccc(C(=O)N(Cc2cccs2)C2CCS(=O)(=O)C2)c1` (stereo unspecified) was > 0.0548 mg/mL.
Molecule `Cc1ccc(Cl)c(OCC(=O)N2CCc3ccccc3C2)c1` registered a solubility (kinetic) of 0.0062 mg/mL (≈ 19.6 µM).
On to `O=[N+]([O-])c1ccc2nc(N3CCCC3)sc2c1`, for which the solubility (kinetic) worked out at 0.0028 mg/mL (≈ 11.2 µM).
For `Cc1ccc(S(=O)(=O)N2CCN(c3ccc([N+](=O)[O-])cn3)CC2)cc1`, the solubility (kinetic) is < 0.0002 mg/mL.
With `Cl.NCC(O)c1ccc(O)cc1` (stereo unspecified), the kinetic solubility is > 0.0284 mg/mL.
`CC(=O)c1ccc(S(=O)(=O)N2CCN(C)CC2)cc1`: the solubility (kinetic) was > 0.0424 mg/mL.
With `Cc1ccc(C(=O)Nc2ccc(N3CCOCC3)nc2N2CCOCC2)cc1`, the kinetic solubility came to 0.0056 mg/mL (≈ 14.6 µM).
To `CN(CC(=O)Nc1ccc(F)c(F)c1F)C(=O)/C=C/c1ccco1` belongs > 0.0507 mg/mL.
With `O=C(/C=C/c1cccc2ccccc12)N1CCOCC1`, the solubility (kinetic) is > 0.0401 mg/mL.
In the case of `CC(C(=O)Nc1ccc(C#N)cc1)N(C)Cc1cccs1` (stereo unspecified), the kinetic solubility was > 0.0449 mg/mL.
Molecule `CCOC(=O)Nc1ccc(C(=O)c2ccncc2)cc1` yielded a solubility (kinetic) of 0.004 mg/mL (≈ 14.8 µM).
Molecule `COc1cccc(CN(C)C(=O)c2csc3c2CCCC3)c1OC` showed a solubility (kinetic) of 0.0465 mg/mL (≈ 135 µM).
The value for `CCCc1nnc(NC(=O)C2CC(=O)N(CCc3ccc(F)cc3)C2)s1` (stereo unspecified) was > 0.0565 mg/mL; that for `O=C(CCc1nc(-c2ccc(Cl)cc2)no1)NCC1CCCO1` (stereo unspecified) was > 0.0504 mg/mL.
To `COCCNC(=S)NCCc1ccc(Cl)cc1Cl` belongs > 0.0461 mg/mL; to `Cn1c(N)c(C(=O)COC(=O)c2ccc(-c3ccccc3)cc2)c(=O)n(C)c1=O`, 0.0068 mg/mL (≈ 17.3 µM).
For `Cc1ccc(S(=O)(=O)N[C@@H](Cc2ccccc2)C(=O)CCl)cc1`, the kinetic solubility is > 0.0528 mg/mL.
Consider `Cc1cc(Br)cc(C=Nc2ccc(N3CCOCC3)cc2)c1O`, for which the solubility (kinetic) amounted to 0.0061 mg/mL (≈ 16.3 µM).
The value for `COCCOC(=O)C1=C(C)NC(=O)NC1c1cccc2ccccc12` (stereo unspecified) was 0.0488 mg/mL (≈ 143 µM); that for `COc1cccc(NC(=O)CNC(=O)c2ccc(C)o2)c1` was > 0.0432 mg/mL.
The value for `O=C(NCCN1CCCCC1)Nc1ccc(Br)cc1` was 0.0484 mg/mL (≈ 148 µM).
For the molecule `CCCNC(=O)c1ccccc1NC(=O)C1=CSCCO1`, the kinetic solubility is > 0.046 mg/mL.
As to `O=C1C(Cc2ccc3[nH]ccc3c2)NC(=S)N1c1ccccc1` (stereo unspecified), the kinetic solubility was > 0.0482 mg/mL.
To `Cc1cc2c(NCCc3ccccc3)ncnc2s1.Cl` belongs 0.0087 mg/mL; to `CC(C)Cc1ccc(C(=O)Nc2ccc(Cc3ccncc3)cc2)o1`, 0.0087 mg/mL (≈ 26 µM).
As to `CCC(Oc1ccccc1)C(=O)Nc1ccccc1N1CCCC1` (stereo unspecified), the kinetic solubility was 0.0079 mg/mL (≈ 24.4 µM).
In the case of `CCc1cc(C(=O)O)c(NC(=O)/C=C/c2ccc(OC)cc2)s1`, the kinetic solubility was > 0.0497 mg/mL.
